These are literature values, as cited in patent US20060204588A1, “Formulations of a nanoparticulate finasteride, dutasteride or tamsulosin hydrochloride, and mixtures thereof” (Elan Pharma International Limited, priority 2005, published 2006).

Each structure is given as a SMILES string.

In the case of `CCOc1ccccc1OCCNC(C)Cc1ccc(OC)c(S(N)(=O)=O)c1.Cl` (single isomer, unassigned; (-)) [Tamsulosin hydrochloride], the Solubility in water entry is given as “sparingly soluble”. For the same compound, for the setting “ethanol”, the “Solubility in ethanol (in words)” value is “slightly soluble”. The Solubility in ether entry (ether) is on record as “practically insoluble”. In addition, the “Solubility in glacial acetic acid” value (glacial acetic acid) is on record as “slightly soluble”. Also, the “Solubility in methanol (in words)” value (methanol) was “sparingly soluble”.
For `C[C@]12C=CC(=O)N[C@@H]1CC[C@@H]1[C@@H]2CC[C@]2(C)[C@@H](C(=O)Nc3cc(C(F)(F)F)ccc3C(F)(F)F)CC[C@@H]12` [Dutasteride, (5α, 17β)-(2,5 bis-(trifluoromethyl)phenyl)-3-oxo-4-azaandrost-1-ene-17-carboxamide], the Solubility in water result is recorded as “insoluble”.
Regarding `CC(C)(C)NC(=O)[C@H]1CC[C@H]2[C@@H]3CC[C@H]4NC(=O)C=C[C@]4(C)[C@H]3CC[C@]12C` [Finasteride, (5alpha,17beta)-N-(1,1-dimethylethyl)-3-oxo-4-azaandrost-1-ene-17-carboxamide], the Solubility in water result is listed as “practically insoluble”. For the same compound, the Solubility in alcohol entry (alcohol) was “soluble”. The Solubility in chloroform result (chloroform) is “freely soluble”. The “Solubility in lower alcohol solvents” value (lower alcohol solvents) is “freely soluble”.
